What all share (assay type): functional, cell-based
For assay [1], the system named is A549. The experiment in a line: Cytotoxicity against human A549 cells after 68 hrs by MTT assay. To be noted: A549, 68 h. (Formazan colour is commonly taken as a measure of viable cells.)
The nature of assay [2]: Cytotoxicity against human KB-3-1 cells after 68 hrs by MTT assay. To be noted: KB 3-1, 68 h.
Assay [3] relates to NCI-H460. The experiment in a line: Cytotoxicity against human H460 cells after 68 hrs by MTT assay. To be noted: NCI-H460, 68 h.

SMILES strings stand for the structures. Where only a bound is given, the exact number is not on record here.

What is called IC50 is the midpoint of a concentration-inhibition curve. Read a high IC50 as a need for much substance.

With `O=C(Nc1cccc(-c2nccs2)c1)C(Cl)Cl`, the 50% inhibitory concentration (IC50) in assay [1], in assay [2] and in assay [3] was above 50 µM throughout.
In the case of `O=C(Nc1cc(-c2ccc3c(c2)OCO3)cc(-c2ccc3c(c2)OCO3)c1)C(Cl)Cl`, the IC50 in assay [1] is 1.73 µM; in assay [2], 2.4 µM; in assay [3] it was 1.04 µM.
Taken in the same sequence, the figures for `O=C(Nc1cc(-c2ccc(OC3CCCCO3)cc2)cc(-c2ccc(OC3CCCCO3)cc2)c1)C(Cl)Cl` (stereo not drawn) were 2.75 µM, 7.22 µM and 2.42 µM.
Regarding `CC(C)c1ccc(-c2cc(NC(=O)C(Cl)Cl)cc(-c3ccc(C(C)C)cc3)c2)cc1`, the IC50 in assay [1] is 17.4 µM; in assay [2] it was above 30 µM; in assay [3], 24.8 µM.
On to `COc1ccc(-c2cc(NC(=O)C(Cl)Cl)cc(-c3ccc(OC)c(F)c3)c2)cc1F`, for which the IC50 in assay [1] came out at 1.95 µM; in assay [2] it was 2.94 µM; in assay [3] it was 1.76 µM.
Turning to `COc1cc(F)cc(-c2cc(NC(=O)C(Cl)Cl)cc(-c3cc(F)cc(OC)c3)c2)c1`, the IC50 in assay [1] came out at 8.99 µM; in assay [2], 5.99 µM; in assay [3], 2.9 µM.
For `O=C(Nc1cccc(-c2cccc(NC(=O)C(Cl)Cl)c2)c1)C(Cl)Cl`, in that order: 47.9 µM, above 50 µM and above 50 µM.
For `Cc1ccc(-c2cccc(NC(=O)C(Cl)Cl)c2)cc1`, in that order: 8.3 µM, above 50 µM and 8 µM.
For `O=C(Nc1cccc(-c2ccc(F)cc2)c1)C(Cl)Cl`, in that order: 7.84 µM, 26.2 µM and above 50 µM.
Turning to `O=C(Nc1cccc(-c2ccc(Cl)cc2)c1)C(Cl)Cl`, the IC50 in assay [1] was 36.2 µM; in assay [2], 38.2 µM; in assay [3] it was above 50 µM.
Taken in the same sequence, the figures for `COc1ccc(-c2cccc(NC(=O)C(Cl)Cl)c2)cc1` were 8.53 µM, above 50 µM and 43.3 µM.
For `O=C(Nc1cccc(-c2ccc(C(F)(F)F)cc2)c1)C(Cl)Cl`, in that order: 23.5 µM, above 50 µM and 33.5 µM.
For `O=C(Nc1cccc(-c2ccc(-c3ccccc3)cc2)c1)C(Cl)Cl`, the IC50 is above 50 µM in assay [1], above 50 µM in assay [2] and 10.9 µM in assay [3].
For `COC(=O)c1ccc(-c2cccc(NC(=O)C(Cl)Cl)c2)cc1`, the IC50 in assay [1], in assay [2] and in assay [3] was above 50 µM throughout.
As for `COc1ccccc1-c1cc(NC(=O)C(Cl)Cl)cc(-c2ccccc2OC)c1`, the IC50 in assay [1] was 25.5 µM; in assay [2], above 30 µM; in assay [3], above 30 µM.
For `COc1cccc(-c2cc(NC(=O)C(Cl)Cl)cc(-c3cccc(OC)c3)c2)c1`, the IC50 in assay [1] was 9.4 µM; in assay [2], above 30 µM; in assay [3], above 30 µM.
On to `COc1ccc(-c2cc(NC(=O)C(Cl)Cl)cc(-c3ccc(OC)cc3)c2)cc1`, for which the IC50 is 20.8 µM in assay [1], above 30 µM in assay [2] and above 30 µM in assay [3].
In the case of `CCOc1ccccc1-c1cc(NC(=O)C(Cl)Cl)cc(-c2ccccc2OCC)c1`, the figures for the IC50 in assay [1], in assay [2] and in assay [3] were 7.28 µM, 8.73 µM and 5.09 µM, respectively.
For `CCOc1cccc(-c2cc(NC(=O)C(Cl)Cl)cc(-c3cccc(OCC)c3)c2)c1`, in that order: 8.83 µM, 14.8 µM and 4.95 µM.
Taken in the same sequence, the figures for `CCOc1ccc(-c2cc(NC(=O)C(Cl)Cl)cc(-c3ccc(OCC)cc3)c2)cc1` were 8.05 µM, 23.9 µM and 6.08 µM.
For `CSc1ccccc1-c1cc(NC(=O)C(Cl)Cl)cc(-c2ccccc2SC)c1`, in that order: 6.51 µM, above 30 µM and above 30 µM.
For the compound `CSc1cccc(-c2cc(NC(=O)C(Cl)Cl)cc(-c3cccc(SC)c3)c2)c1`, the IC50 in assay [1] is 15.9 µM; in assay [2] it was above 30 µM; in assay [3], above 30 µM.
As for `CSc1ccc(-c2cc(NC(=O)C(Cl)Cl)cc(-c3ccc(SC)cc3)c2)cc1`, the concentration for half-maximal inhibition (IC50) was 22.3 µM in assay [1], above 30 µM in assay [2] and above 30 µM in assay [3].
As for `CC(C)Oc1ccc(-c2cc(NC(=O)C(Cl)Cl)cc(-c3ccc(OC(C)C)cc3)c2)cc1`, the IC50 in assay [1] came out at 3.82 µM; in assay [2] it was 8.85 µM; in assay [3], 2.86 µM.
As to `O=C(Nc1cccc(-c2ccccc2)c1)C(Cl)Cl`, the IC50 stood at 8.9 µM in assay [1], 46.8 µM in assay [2] and 20.2 µM in assay [3].
For `O=C(Nc1cccc(-c2ccoc2)c1)C(Cl)Cl`, in that order: 8.48 µM, above 50 µM and 37.6 µM.
For `O=C(Nc1cccc(-c2cccs2)c1)C(Cl)Cl`, in that order: 47.6 µM, above 50 µM and above 50 µM.
Taken in the same sequence, the figures for `O=C(Nc1cccc(-c2ccsc2)c1)C(Cl)Cl` were above 50 µM, above 50 µM and above 50 µM.
In the case of `O=C(Nc1cccc(-c2ccccn2)c1)C(Cl)Cl`, the IC50 in assay [1], in assay [2] and in assay [3] was above 50 µM each time.
With `Cc1ccccc1-c1cccc(NC(=O)C(Cl)Cl)c1`, the IC50 in assay [1] came out at 9.86 µM; in assay [2], 42 µM; in assay [3], 31.6 µM.
Turning to `O=C(Nc1cccc(-c2ccccc2F)c1)C(Cl)Cl`, the IC50 amounted to 13.2 µM in assay [1], 48.3 µM in assay [2] and 26.8 µM in assay [3].
Taken in the same sequence, the figures for `O=C(Nc1cccc(-c2ccccc2Cl)c1)C(Cl)Cl` were 22.6 µM, above 50 µM and above 50 µM.
Taken in the same sequence, the figures for `COc1ccccc1-c1cccc(NC(=O)C(Cl)Cl)c1` were 13.1 µM, 13.1 µM and 40.4 µM.
Taken in the same sequence, the figures for `O=C(Nc1cccc(-c2ccccc2C(F)(F)F)c1)C(Cl)Cl` were 7.5 µM, 35.9 µM and 7.55 µM.
On to `Cc1cccc(-c2cccc(NC(=O)C(Cl)Cl)c2)c1`, for which the figures for the IC50 in assay [1], in assay [2] and in assay [3] were 8.7 µM, above 50 µM and 24.2 µM, respectively.
Taken in the same sequence, the figures for `O=C(Nc1cccc(-c2cccc(F)c2)c1)C(Cl)Cl` were 9.53 µM, above 50 µM and above 50 µM.
For `O=C(Nc1cccc(-c2cccc(Cl)c2)c1)C(Cl)Cl`, in that order: 21.4 µM, above 50 µM and above 50 µM.
For `COc1cccc(-c2cccc(NC(=O)C(Cl)Cl)c2)c1`, in that order: 4.31 µM, 43.3 µM and 33.8 µM.
For the compound `O=C(Nc1cccc(-c2cccc(C(F)(F)F)c2)c1)C(Cl)Cl`, the IC50 in assay [1] is 18.5 µM; in assay [2] it was above 50 µM; in assay [3] it was 30.2 µM.
Taken in the same sequence, the figures for `Nc1cccc(-c2cccc(NC(=O)C(Cl)Cl)c2)c1` were above 50 µM, 26.1 µM and above 50 µM.
Taken in the same sequence, the figures for `O=C([O-])C(Cl)Cl.[Na+]` [SODIUM DICHLOROACETATE] were 4290 µM, 5880 µM and 3890 µM.

(Values after ChEMBL document CHEMBL2203060, “Design, synthesis and biological evaluation of N-arylphenyl-2,2-dichloroacetamide analogues as anti-cancer agents” (Bioorg Med Chem Lett, 2012).)
